Experimental data taken from patent publication US20060030616A1, “Anhydride modified cantharidin analogues useful in the treatment of cancer” (priority 1998, published 2006).
Where two headings read alike, the source gives them in different places.

Experiments:
L1210 cells [1] = assay: MTT cytotoxicity assay, 72 h; assay type: cell-based, murine; settings: L1210, p53 wt, read-out: IC50 (mean ± SE) after 72 h continuous exposure
Procedure: (§1) Cells in a subconfluent phase are transferred to 96-well microtitre plates. L1210 cells are plated at a density of 1000 cells/well in 100 μl medium, while all other cell lines are plated at a density of 2000-25000 cells/well. The cells are left for 24 h prior to treatment to ensure exponential growth has been achieved, 24 h after plating (day 0), 100 μl of phosphatase inhibitor is added to each well, control wells received 100 μl of medium only. Drug exposure time is 72 h (day 3). The effect of phosphatase inhibition is tested in triplicate over a concentration range of […]−1×10^−8 M. Growth inhibitory effects are evaluated using the MTT assay and absorbance read at […]. The IC50 is the drug concentration at which cell growth is 50% inhibited based on the difference of optical density on day 0 and day 3 of drug exposure. Cytotoxicity is evaluated using a spectrophotometric assay which determines the percentage of cell growth following exposure of the cells to various concentrations of the phosphatase inhibitors for a period of 72 hours. The subsequent dose response curve is used to calculate IC50 values (the drug concentration at which cell growth is 50% inhibited).
(§2) Anti-cancer screening of the protein phosphatase inhibitors is assessed using the MTT assay. This assay determines cell viability by the ability of mitochondrial dehydrogenase to produce formazan crystals from 3-(4,5-dimethylthiazol-2-yl)-2,5-diphenyltetrazolium bromide. The viable cell number/well is directly proportional to the production of formazan, which following solubilization, can be measured spectrophotometrically (540 nm). This technique is also used by the National Cancer Institute to screen for new anticancer agents.
(§3) As described herein a number of cantharidin analogues have been synthesised and tested for their anticancer activity in nine cancer cell lines using the MTT assay after 72 h exposure. These new analogues are shown in FIG. 2 and have been designated MK-1 through to MK-9.

143B cells = assay: MTT cytotoxicity assay, 72 h; assay type: cell-based, human; settings: p53 mt, read-out: IC50 (mean ± SE) after 72 h continuous exposure
Procedure: as §1, §2, §3

ADDP cells = assay: MTT cytotoxicity assay, 72 h; assay type: cell-based, human; settings: p53 mt, read-out: IC50 (mean ± SE) after 72 h continuous exposure
Procedure: as §1, §2, §3

HCT116 cells = assay: MTT cytotoxicity assay, 72 h; assay type: cell-based, human; settings: HCT116, p53 wt, read-out: IC50 (mean ± SE) after 72 h continuous exposure
Procedure: as §1, §2, §3

HL60 cells [2] = assay: MTT cytotoxicity assay, 72 h; assay type: cell-based, human; settings: HL60, p53 nul, read-out: IC50 (mean ± SE) after 72 h continuous exposure
Procedure: as §1, §2, §3

HT29 cells = assay: MTT cytotoxicity assay, 72 h; assay type: cell-based, human; settings: HT29, p53 mt, read-out: IC50 (mean ± SE) after 72 h continuous exposure
Procedure: as §1, §2, §3

SW480 cells = assay: MTT cytotoxicity assay, 72 h; assay type: cell-based, human; settings: SW480, p53 mt, read-out: IC50 (mean ± SE) after 72 h continuous exposure
Procedure: as §1, §2, §3

WiDr cells = assay: MTT cytotoxicity assay, 72 h; assay type: cell-based, human; settings: p53 mt, read-out: IC50 (mean ± SE) after 72 h continuous exposure
Procedure: as §1, §2, §3

nine cancer cell lines = assay: MTT cytotoxicity assay, 72 h, ranges over cell line panel; assay type: cell-based; settings: nine cell lines, read-out: IC50 range across all cell lines tested
Procedure: as §1, §2, §3

L1210 cells [3] = assay: Cell cycle analysis, flow cytometry of propidium iodide stained cells; assay type: cell-based, murine; settings: for Cell Cycle Distribution, G1 / Cell Cycle Distribution, G2 + M / Cell Cycle Distribution, S / Cell Cycle Distribution, sub G1 / Cell cycle remark: 12 h; for Cell cycle response: L1210, 12 h exposure
Procedure: (§4) The cells are fixed in 70% ethanol and stored at −20° C. until analysis is performed (1-2 weeks). After fixing, the cells are pelleted and incubated in PBS containing propidium iodide ([…]) and RNase A (200 mg/ml) for at least 30 min at room temperature. The samples (2×10^4 events) are analysed using a Becton Dickson FACScan, fluorescence is collected in fluorescence detector 2 (FL2), filter 575/30 nm band pass. Cell cycle distribution is assessed using Cell Quest software (Becton Dickson).
(§5) The ability of the protein phosphatase inhibitors to abrogate the G1 or G2 checkpoint of the cell cycle may be determined by cell cycle analysis using flow cytometry. Briefly, asynchronous cell cultures are harvested 18 h after 6 Gy irradiation and/or 12 h incubation with the protein phosphatase inhibitor. Depending upon the p53 status of the cell line, radiation treatment alone will induce arrest in either G1 and/or G2 phase of the cell cycle.
(§6) Data shown in Table 2 and FIG. 4 show the cell cycle response of L1210, HL60, HT29 and HCT116 cells to cantharidin and the new cantharidin analogues MK-2 and MK-4 after 12 h exposure. In summary, cantharidin and MK-2 produced a similar response and induced G2 arrest in all four cell lines tested. […] HL60 and HCT116 cells. […] The magnitude of the cell cycle arrest induced by these drugs directly correlated with their cytotoxicity in the respective cell lines. […] The cytotoxicity of the […]

HL60 cells [4] = assay: as above; assay type: cell-based, human; settings: for Cell Cycle Distribution, G1 / Cell Cycle Distribution, G2 + M / Cell Cycle Distribution, S / Cell Cycle Distribution, sub G1 / Cell cycle remark: 12 h; for Cell cycle response: HL60, 12 h exposure
Procedure: as §4, §5, §6

## C[C@@]12C(=O)OC(=O)[C@]1(C)[C@H]1CC[C@@H]2O1 [Cantharidin, exo.exo-2.3-dimethyl-7-oxobicyclo[2.2.1]heptane-2,3-dicarboxylic acid anhydride]
L1210 cells [1]; Mus musculus, 72 h
  IC50: 18 µM
143B cells; Homo sapiens, 72 h
  IC50: 10.2 ± 1.2 µM
ADDP cells; Homo sapiens, 72 h
  IC50: 12 ± 0.8 µM
HCT116 cells; Homo sapiens, HCT-116, 72 h
  IC50: 12 µM
HL60 cells [2]; Homo sapiens, HL-60, 72 h
  IC50: 13 µM
HT29 cells; Homo sapiens, HT-29, 72 h
  IC50: 6.4 ± 0.7 µM
SW480 cells; Homo sapiens, 72 h
  IC50: 17.5 µM
WiDr cells; Homo sapiens, 72 h
  IC50: 6.1 ± 0.5 µM
Nine cancer cell lines
  IC50: 6.1 to 18 µM
L1210 cells [3]; L1210, 1 μM
  Cell Cycle Distribution, G1: 45.8 percentage of total
  Cell Cycle Distribution, G2 + M: 21.6 percentage of total
  Cell Cycle Distribution, S: 33.7 percentage of total
  Cell Cycle Distribution, sub G1: 0.5 percentage of total
L1210 cells [3]; L1210, 5 μM
  Cell Cycle Distribution, G1: 46.5 percentage of total
  Cell Cycle Distribution, G2 + M: 21.9 percentage of total
  Cell Cycle Distribution, S: 32.6 percentage of total
  Cell Cycle Distribution, sub G1: 0.6 percentage of total
L1210 cells [3]; L1210, 10 μM
  Cell Cycle Distribution, G1: 49.1 percentage of total
  Cell Cycle Distribution, G2 + M: 18.9 percentage of total
  Cell Cycle Distribution, S: 33.0 percentage of total
  Cell Cycle Distribution, sub G1: 0.5 percentage of total
L1210 cells [3]; L1210, 50 μM
  Cell Cycle Distribution, G1: 22.0 percentage of total
  Cell Cycle Distribution, G2 + M: 50.6 percentage of total
  Cell Cycle Distribution, S: 27.8 percentage of total
  Cell Cycle Distribution, sub G1: 1.9 percentage of total
  Cell cycle remark: G2 arrest
L1210 cells [3]
  Cell cycle response: G2 arrest
HL60 cells [4]; HL60, 1 μM
  Cell Cycle Distribution, G1: 44.0 percentage of total
  Cell Cycle Distribution, G2 + M: 29.7 percentage of total
  Cell Cycle Distribution, S: 26.1 percentage of total
  Cell Cycle Distribution, sub G1: 1.5 percentage of total
HL60 cells [4]; HL60, 5 μM
  Cell Cycle Distribution, G1: 41.4 percentage of total
  Cell Cycle Distribution, G2 + M: 30.6 percentage of total
  Cell Cycle Distribution, S: 27.7 percentage of total
  Cell Cycle Distribution, sub G1: 1.7 percentage of total
HL60 cells [4]; HL60, 10 μM
  Cell Cycle Distribution, G1: 41.8 percentage of total
  Cell Cycle Distribution, G2 + M: 30.4 percentage of total
  Cell Cycle Distribution, S: 27.5 percentage of total
  Cell Cycle Distribution, sub G1: 1.7 percentage of total
  Cell cycle remark: G2 arrest
HL60 cells [4]; HL60, 50 μM
  Cell Cycle Distribution, G1: 16.2 percentage of total
  Cell Cycle Distribution, G2 + M: 34.7 percentage of total
  Cell Cycle Distribution, S: 31.6 percentage of total
  Cell Cycle Distribution, sub G1: 19.3 percentage of total
  Cell cycle remark: Cell Death
HL60 cells [4]
  Cell cycle response: G2 arrest

## O=C1OC(=O)C2C3C=CC(O3)C12 (centres unmarked) [MK-2]
L1210 cells [1]
  IC50: 185 ± 51 µM
143B cells
  IC50: 248 ± 29 µM
ADDP cells
  IC50: 183 ± 17 µM
HCT116 cells
  IC50: 160 ± 10 µM
HL60 cells [2]
  IC50: 177 ± 3 µM
HT29 cells
  IC50: 183 ± 20 µM
SW480 cells
  IC50: 155 ± 9 µM
WiDr cells
  IC50: 198 ± 53 µM
Nine cancer cell lines
  IC50: 157 to 248 µM
L1210 cells [3]; L1210, 50 μM
  Cell Cycle Distribution, G1: 42.7 percentage of total
  Cell Cycle Distribution, G2 + M: 31.7 percentage of total
  Cell Cycle Distribution, S: 26.2 percentage of total
  Cell Cycle Distribution, sub G1: 0.3 percentage of total
L1210 cells [3]; L1210, 100 μM
  Cell Cycle Distribution, G1: 45.2 percentage of total
  Cell Cycle Distribution, G2 + M: 32.4 percentage of total
  Cell Cycle Distribution, S: 22.4 percentage of total
  Cell Cycle Distribution, sub G1: 0.6 percentage of total
L1210 cells [3]; L1210, 250 μM
  Cell Cycle Distribution, G1: 46.7 percentage of total
  Cell Cycle Distribution, G2 + M: 36.7 percentage of total
  Cell Cycle Distribution, S: 14.3 percentage of total
  Cell Cycle Distribution, sub G1: 2.4 percentage of total
L1210 cells [3]; L1210, 500 μM
  Cell Cycle Distribution, G1: 26.3 percentage of total
  Cell Cycle Distribution, G2 + M: 60.0 percentage of total
  Cell Cycle Distribution, S: 10.1 percentage of total
  Cell Cycle Distribution, sub G1: 3.9 percentage of total
  Cell cycle remark: G2 arrest
L1210 cells [3]
  Cell cycle response: G2 arrest
HL60 cells [4]; HL60, 50 μM
  Cell Cycle Distribution, G1: 44.1 percentage of total
  Cell Cycle Distribution, G2 + M: 31.4 percentage of total
  Cell Cycle Distribution, S: 23.8 percentage of total
  Cell Cycle Distribution, sub G1: 1.8 percentage of total
HL60 cells [4]; HL60, 100 μM
  Cell Cycle Distribution, G1: 43.3 percentage of total
  Cell Cycle Distribution, G2 + M: 32.4 percentage of total
  Cell Cycle Distribution, S: 23.6 percentage of total
  Cell Cycle Distribution, sub G1: 1.8 percentage of total
HL60 cells [4]; HL60, 250 μM
  Cell Cycle Distribution, G1: 37.7 percentage of total
  Cell Cycle Distribution, G2 + M: 36.4 percentage of total
  Cell Cycle Distribution, S: 23.8 percentage of total
  Cell Cycle Distribution, sub G1: 3.2 percentage of total
  Cell cycle remark: G2 arrest
HL60 cells [4]; HL60, 500 μM
  Cell Cycle Distribution, G1: 17.8 percentage of total
  Cell Cycle Distribution, G2 + M: 43.1 percentage of total
  Cell Cycle Distribution, S: 21.6 percentage of total
  Cell Cycle Distribution, sub G1: 18.8 percentage of total
  Cell cycle remark: Cell death
HL60 cells [4]
  Cell cycle response: G2 arrest
